The subject of one test is GBV-B virus. The test is described as follows: Infection of enhanced cells with GBV-B virus-containing serum by electroporation (Taqman). The test is classed as cell-based. On the procedure: GBV-B virus inoculum produced upon passage of virus in tamarins was used to infect Huh7 and cB76.1/Huh7 enhanced cells. GBV-B containing tamarin serum was layered onto 10^5 cells in multiwell-6-wells 1 day after plating at multiplicity of infection of 0.75 G.E./cell. After 6 hours adsorption, the virus-containing serum was removed, the cells extensively washed and incubated in the serum-free DMEM. Cells from individual wells were lyzed with Trizol at different times and GBV-B RNA quantified by Taqman.
As an alternative method, 10^6 cells were mixed with undiluted virus-containing serum (10^6 G.E.) and subjected to electroporation. The cells were plated at a density of 10^5/well and treated as described for experiments of RNA electroporation. Duplicate wells were run in parallel, with and without interferon. Cells from individual wells were lyzed with Trizol at different times and GBV-B RNA quantified by Taqman. The amount of G.E. detectable immediately after electroporation and wash was 10^3 G.E., it was undetectable at 24 and 48 hours, at day 3 it was 10^4 G.E.; at day 6 it was 5×10^3 (possibly inhibition due to cell density); in corresponding wells treated with interferon the RNA was undetectable. […] RNA was quantified at day 13 and 16 giving a figure corresponding to 4×10^3 G.E. and 1.2×10^4 G.E. respectively. […]
A general note: Quantitative PCR measures a nucleic acid by following its amplification.

For a further test, the system named is HCV replicon. Description: Effect of test compound on HCV replicon RNA in 10A Huh7 cells (TaqMan, neo primer set). The test is classed as cell-based. The settings on record: 10A cells (HCV replicon in Huh7), up to 3 days, replicon RNA normalized to GAPDH. The protocol:
(§1) Huh7 cell clones carrying GBV-B or HCV replicons were used to test the effect of human interferon alpha-2b. Cells (1×10^5) were plated into each well of a series of wells of Multiwell-6-wells plates (falcon cat N. 35-3046) in medium without G418. After 16 hours the medium was discarded and increasing concentrations of the test compound in fresh medium were added to each series of wells. Controls were run using the specific compound solvent at the appropriate dilution.
Cells were grown up to 3 days in the presence of compounds or compound solvent without a compound, avoiding cell confluence, and finally lysed with TRIzol. Total RNA was purified as described in the TRizol protocol (Life Technologies). Ten out of 100 μl of total RNA were used in each reaction.
Taq Man analysis was performed using a neomycin primer set (taq NEO 1, GATGGATTGCACGCAGGTT (SEQ. ID. NO. 17), and taq NEO 5, […] (SEQ. ID. NO. 18)) and a NEO probe (1,6-carboxyfluorescein-TCCGGCCGCTTGGGT GGAG (SEQ. ID. NO. 19)-N,N,N′,N′-tetramethyl-6-carboxyrhodamine). Human GAPDH mRNA quantified with a specific primer set (PE Applied Biosystems) was used as an endogenous reference. GBV-B RNA extracted from mock-treated cells was used as a calibrator. Results from two independent experiments were analyzed using both the Comparative Ct Method and the standard curve method. […]

The subject of test [1] is GBV-B full-length genomic FL3 RNA. The test is described as follows: Replication of full-length GBV-B FL3 RNA transfected in cB76.1/Huh7 enhanced cells (Taqman). In kind it is cell-based. The text has this:
GBV-B RNA was quantified by a real-time 5′ exonuclease PCR (TaqMan) assay using a primer/probe set that recognized a portion of the GBV-B 5′UTR. The primers (GBV-B-F3, GTAGGCGGCGGGACTCAT (SEQ. ID. NO. 14), and GBV-B-R3, TCAGGGCCATCCAAGTCAA (SEQ. ID NO. 15)) and probe (GBV-B-P3,6-carboxyfluorescein-[…] (SEQ. ID. NO. 16)-N,N,N′,N′-tetramethyl-6-carboxyrhodamine) were selected using the Primer Express software (PE Applied Biosystems). The fluorescent probe was obtained from PE Applied Biosystems. The primers were used at 10 pmol/50 μl reaction, and the probe was used at 5 pmol/50 μl reaction.
PCR was were performed using a TaqMan Gold RT-PCR kit (PE Applied Biosystems). […]
RNA transcribed from a plasmid containing the first 2000 nucleotides of the GBV-B genome was used as a standard to establish genome equivalents. […] RNA was quantified by absorbance at 260 nm and stored at −80° C.
All reactions were run in duplicate by using the ABI Prism 7700 Sequence Detection System (PE Applied Biosystems). […] Results from two independent experiments were analyzed using both the Comparative Ct Method and the standard curve method.
GBV-B full-length genomic FL3 RNA (EMBL accession number AJ277947) was transfected in Huh7 and in enhanced cells cB76.1/Huh7 in parallel with the corresponding GAA control. Intracellular GBV-B RNA was measured by Taqman in a time-course experiment.

The test system of a further test is RepB replication. Description: beta-lactamase stain of bla-RepB transfected cB76.1/Huh7 cells. In kind it is cell-based, GBV-B. The protocol:
Immediately after electric pulses cells were diluted in 8 ml complete Dulbecco's Modified Eagle Medium (DMEM) and processed with different protocols depending on the selection/tracer used. In the case of neo-constructs transformation, cells were divided in 3 plates of 15 cm diameter and on the following day the selecting antibiotic G418 (Sigma G-9516) was added at a concentration of 0.250, 0.5 or 1 mg/ml. […] Surviving clones were picked-up and expanded by growing them in individual plates. When a bla reporter gene was used, 1.5 ml, 1.0 ml and 0.5 ml of transfected cells suspension were plated in each well of Multiwell-6-wells plate (Falcon cat. N. 35-3046) to be stained respectively at 24, 48 and 72 hours.
Aurora substrate system “CCF4” was used to measure β-lactamase activity. When quantitative PCR was used to measure transient replication, cells were plated 1-2×10^5/well in “6-multi-well plate”. After 3 days total RNA was purified as described in the TRIzol protocol (Life Technologies) and 10 out of 100 μl of total RNA were used in individual TaqMan reactions.
The increased efficiency of replication of RepB RNA in cB76.1/Huh7 cells compared to wild type Huh7 cells was also monitored using a colorimetric assay after transfection of RNA transcribed from bla-RepB plasmid. The bla-RepB plasmid expresses a […] marker in place of the selector neomycin phosphotransferase. […]

The next test concerns GBV-B replicon. The test is described as follows: Effect of test compound on GBV-B replicon RNA in B76.1/Huh7 cells (TaqMan, neo primer set). The test is classed as cell-based. The protocol:
as §1
[…] Total RNA was purified as described in the TRizol protocol (Life Technologies). Ten out of 100 μl of total RNA were used in each reaction.
Taq Man analysis was performed using a neomycin primer set (taq NEO 1, GATGGATTGCACGCAGGTT (SEQ. ID. NO. 17), and taq NEO 5, […] (SEQ. ID. NO. 18)) and a NEO probe (1,6-carboxyfluorescein-TCCGGCCGCTTGGGT GGAG (SEQ. ID. NO. 19)-N,N,N′,N′-tetramethyl-6-carboxyrhodamine). Human GAPDH mRNA quantified with a specific primer set (PE Applied Biosystems) was used as an endogenous reference. GBV-B RNA extracted from mock-treated cells was used as a calibrator. Results from two independent experiments were analyzed using both the Comparative Ct Method and the standard curve method.
Experiments were performed using 10^5 cells of B76.1/Huh7 and 10A plated into individual wells of 6-multiwell plate and incubated overnight in the absence of G418. […]
In general terms: In antiviral work, replicon cells carry a viral genome segment that copies itself.

In the case of “human interferon alpha-2b [Human alpha-IFN]”, in the test with GBV-B virus (after splits, points up to day 16), the “GBV-B RNA in cells cultivated in the presence of IFN” value was “background signals”. The “GBV-B RNA in treated wells” value in the test on GBV-B virus (day 3 and day 6 after electroporation with virus-containing serum) is “undetectable”. Besides, in the test on HCV replicon, the “IC50 on HCV replicon” value is 0.58 U/ml. Moreover, the “Decrease of FL3 RNA amount” value in test [1] (cB76.1/Huh7 transfected with FL3, day 6) is reported as 10-20 fold. In addition, the “Effect on GAA mutant RNA amount” value in test [1] (cB76.1/Huh7 transfected with mutant GAA construct, day 6) is listed as “did not affect”. Also, the “Number of blue cells” value with RepB replication is “reduced the number of blue cells to background levels”. In addition, the “Replicon RNA after curing treatment” value in the test with GBV-B replicon (B76.1/Huh7, 100 U/ml for 15 days in the absence of neomycin, TaqMan at end of treatment) was “disappearance of the selectable RNA replicon molecules”. In addition, in the test on GBV-B replicon (B76.1/Huh7 cells, up to 3 days, replicon RNA normalized to GAPDH), the “IC50 on GBV-B replicon” value worked out at 0.45 U/ml.
